The values below come from patent US8604053B2, “TRPV1 antagonists” (AbbVie Inc., priority 2008, dated 2013).

The target of one data set is T1, CYP3A4 (Homo sapiens, UniProt P08684).
T1 construct: human liver microsomes (BD Gentest, 450 μL; final concentration: 0.4 mg/mL); tissue BD Gentest; host or cells: human liver microsomes
Kind of data set: CYP3A4 inhibition assay. Format: in vitro ADME. The note with it: human liver microsomes, substrate BZQ; for inhibition at 25 min, 2.2 µM: pH 7.4, probe 7-benzyloxyquiniline (BZQ), 50 μM final, read-out: CYP3A4 % inh @ 2.2 μM. As for the experimental part: Luciferin-H was used as the substrate for CYP2C9; 3-[2-(N,N-diethyl-N-methylammonium)ethyl]-7-methoxy-4-methylcoumarin (AMMC) was used as the substrate for CYP2D6; 7-benzyloxyquiniline (BZQ) was used as the substrate for CYP3A4.
Pre-Incubation Mixture Preparation for CYP3A4: A pre-incubation mixture was prepared by combining 100 mM phosphate buffer (19.35 mL; pH 7.4), human liver microsomes (BD Gentest, 450 μL; final concentration: 0.4 mg/mL), and 10 mM nicotinamide adenine dinucleotide phosphate in 65.4 mM MgCl2 hexahydrate (225 μL; final concentration: 100 μM and 654 μM, respectively). To this was mixture was added a ‘regeneration’ mixture (225 μL) of 333 mM glucose-6-phosphate and 40 U/mL glucose-6-phosphate dehydrogenase in 5 mM sodium citrate (final concentration: 3.3 mM, 0.4 U/mL, and 0.05 mM, respectively).
Substrate Mixture Preparation for CYP3A4: To a solution of 100 mM phosphate buffer, (2.36 mL, pH 7.4) was added 30 mM BZQ in acetonitrile (40 μL; final solution concentration 0.5 mM, final assay concentration 50 μM).
CYP3A4 Inhibiton Assay: To each well in the assay plate containing varying concentrations of test compound or control compound in DMSO (10 μL), CYP3A4 Pre-Incubation Mixture (90 μL) was added to the wells and the assay plate was pre-incubated for 10 minutes at 37° C., with shaking or rocking. A pre-read of each well was performed at 405 nm and 535 nm extinction/emission. CYP3A4 Substrate Mixture (10 μL) was added to all wells and the assay plate was incubated for an additional […] at 37° C., with shaking or rocking. Final DMSO concentration was 1%. A post-read of each well was then performed at 405 nm and 535 nm extinction/emission.
In general terms: Microsomes from liver hold many membrane-bound enzymes, among them those of drug oxidation.

For data set [1], the target named is T2, human TRPV1 receptor (hTRPV1) (Homo sapiens, UniProt Q8NER1).
T2 construct: expressed in transfected cells
Put plainly: Capsaicin activation assay (Ca2+ influx, FLIPR). The format is cell-based. The note with it: hTRPV1 in 1321N1 cells, 0.05 μM capsaicin. The method, boiled down: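 1321N1 astrocytoma cells stably expressing recombinant hTRPV1, loaded with Fluo-4 AM (2 μM, 1-2 h, 23 °C); compounds added 3 min before capsaicin (0.05 μM final), 11-point half-log range. Peak FLIPR fluorescence over baseline as % of capsaicin control; IC50 from four-parameter Hill fit.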

T2 sequence (Q8NER1 whole entry): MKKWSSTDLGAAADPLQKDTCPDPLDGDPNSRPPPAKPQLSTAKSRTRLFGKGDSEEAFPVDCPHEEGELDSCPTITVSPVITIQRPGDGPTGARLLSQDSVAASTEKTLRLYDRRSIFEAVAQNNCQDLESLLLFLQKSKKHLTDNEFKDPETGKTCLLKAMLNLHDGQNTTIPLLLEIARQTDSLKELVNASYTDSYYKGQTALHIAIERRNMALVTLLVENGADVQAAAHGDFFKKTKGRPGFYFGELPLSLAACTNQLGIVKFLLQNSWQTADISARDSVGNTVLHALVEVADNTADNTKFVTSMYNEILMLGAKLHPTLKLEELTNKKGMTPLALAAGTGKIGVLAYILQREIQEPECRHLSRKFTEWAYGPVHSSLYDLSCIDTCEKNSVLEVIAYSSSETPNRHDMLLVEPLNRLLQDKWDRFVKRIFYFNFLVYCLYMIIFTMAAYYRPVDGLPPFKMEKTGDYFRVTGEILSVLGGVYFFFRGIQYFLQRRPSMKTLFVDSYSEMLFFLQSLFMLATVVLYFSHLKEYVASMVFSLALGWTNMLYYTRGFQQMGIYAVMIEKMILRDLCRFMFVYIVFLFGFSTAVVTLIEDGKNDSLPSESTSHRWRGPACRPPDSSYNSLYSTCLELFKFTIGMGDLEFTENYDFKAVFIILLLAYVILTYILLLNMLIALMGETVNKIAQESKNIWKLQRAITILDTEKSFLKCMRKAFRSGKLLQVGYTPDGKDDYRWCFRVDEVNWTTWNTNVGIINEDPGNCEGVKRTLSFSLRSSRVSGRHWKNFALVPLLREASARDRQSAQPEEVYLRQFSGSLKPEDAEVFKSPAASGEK
T1 sequence (P08684 whole entry): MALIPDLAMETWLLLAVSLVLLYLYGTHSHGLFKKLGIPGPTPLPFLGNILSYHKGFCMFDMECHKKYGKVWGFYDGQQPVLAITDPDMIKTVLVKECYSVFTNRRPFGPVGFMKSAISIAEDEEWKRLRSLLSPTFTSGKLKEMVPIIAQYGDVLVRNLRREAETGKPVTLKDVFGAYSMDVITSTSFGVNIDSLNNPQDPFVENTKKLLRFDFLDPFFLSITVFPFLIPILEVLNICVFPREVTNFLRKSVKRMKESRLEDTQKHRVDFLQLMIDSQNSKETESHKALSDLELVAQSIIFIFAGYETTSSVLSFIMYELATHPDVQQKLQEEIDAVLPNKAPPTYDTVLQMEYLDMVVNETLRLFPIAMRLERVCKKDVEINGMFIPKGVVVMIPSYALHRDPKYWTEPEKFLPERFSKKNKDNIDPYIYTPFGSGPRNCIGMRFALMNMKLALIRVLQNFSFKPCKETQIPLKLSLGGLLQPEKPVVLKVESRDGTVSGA

For the compound `Cc1cc2c(NC(=O)N[C@@H]3CC(CF)(CF)Oc4c(Cl)cccc43)cccc2cn1` [Example 91, N-[(4R)-8-chloro-2,2-bis(fluoromethyl)-3,4-dihydro-2H-chromen-4-yl]-N′-(3-methylisoquinolin-5-yl)urea], the inhibition at 25 min, 2.2 µM at CYP3A4 came out at 3.8%. The same compound gave an IC50 in data set [1] of 0.026 µM.

As for `Cc1cc2c(NC(=O)N[C@@H]3CC(C)(C)Oc4cc(F)ccc43)c(F)ccc2cn1` [Example 123, N-[(4R)-7-fluoro-2,2-dimethyl-3,4-dihydro-2H-chromen-4-yl]-N′-(6-fluoro-3-methylisoquinolin-5-yl)urea], the inhibition at 25 min, 2.2 µM on CYP3A4 came to 49%. For the same compound, in data set [1], the IC50 was 0.027 µM.

With `CC1(C)C[C@@H](NC(=O)Nc2cccc3cnccc23)c2ccccc2O1` [Example 27, N-[(4R)-2,2-dimethyl-3,4-dihydro-2H-chromen-4-yl]-N′-isoquinolin-5-ylurea], the inhibition at 25 min, 2.2 µM on CYP3A4 is 65%. Also, in data set [1], the half-inhibitory concentration (IC50) was 0.032 µM.

In the case of “N-[(4R)-6,8-difluoro-2,2-dimethyl-3,4-dihydro-2H-chromen-4-yl]-N′-isoquinolin-5-ylurea [Example 17]”, the “CYP3A4 % inh @ 2.2 μM” value on CYP3A4 is listed as 63%. The same compound had an IC50 in data set [1] of 0.032 µM.

Take `Cc1cc2c(NC(=O)N[C@@H]3C[C@@](C)(C(F)F)Oc4cc(Cl)ccc43)cccc2cn1` (single isomer, unassigned) [Example 124]: at CYP3A4, the inhibition at 25 min, 2.2 µM is 21%. The same compound showed a half-inhibitory concentration (IC50) in data set [1] of 0.006 µM.

By IC50 is commonly meant the midpoint of a concentration-inhibition curve.
